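Assay format: 96-well plates, 48-hour exposure. TGI is the concentration that stops growth completely.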
Assays:
Assay in all cases: growth of human tumour cells (NCI), 48 h
HCT-15 colon = system: HCT-15 colon
K-562 leukemia = system: K-562 leukemia
MOLT-4 leukemia = system: MOLT-4 leukemia
EKVX NSCLC = system: EKVX NSCLC
IGROV1 ovarian = system: IGROV1 ovarian
A498 renal = system: A498 renal
NCI-H23 lung = system: NCI-H23 lung
A549 NSCLC = system: A549 NSCLC
MCF7 breast = system: MCF7 breast
HOP-92 NSCLC = system: HOP-92 NSCLC
UACC-62 melanoma = system: UACC-62 melanoma
HCC-2998 colon = system: HCC-2998 colon

O=C(NS(=O)(=O)OCC(Cl)(Cl)Cl)SCCC(F)(F)C(F)(F)C(F)(F)C(F)(F)C(F)(F)C(F)(F)F
TGI (HCT-15 colon): 47.4 µM
TGI (K-562 leukemia): > 100 µM
TGI (MOLT-4 leukemia): 80 µM
TGI (EKVX NSCLC): 35.5 µM
TGI (IGROV1 ovarian): > 100 µM
TGI (A498 renal): 61.9 µM
TGI (NCI-H23 lung): 40.6 µM
TGI (A549 NSCLC): 94.6 µM
TGI (MCF7 breast): 40.6 µM
TGI (HOP-92 NSCLC): 23.4 µM
TGI (UACC-62 melanoma): 40.6 µM

COc1ccc(N2C(=O)CS(=O)(=O)C2c2cccc(Oc3ccccc3)c2)cc1 (configuration not stated)
TGI (HCT-15 colon): 55.2 µM
TGI (K-562 leukemia): 8.44 µM
TGI (MOLT-4 leukemia): 21.9 µM
TGI (EKVX NSCLC): 47.8 µM
TGI (NCI-H23 lung): > 100 µM
TGI (A549 NSCLC): > 100 µM
TGI (MCF7 breast): 4.72 µM
TGI (HOP-92 NSCLC): 72.1 µM
TGI (UACC-62 melanoma): 6.25 µM

CC1(C)OC2C(O)CN3CCS[C@H]3C2O1 (some centres not stated)
TGI (HCT-15 colon): > 100 µM
TGI (HCC-2998 colon): > 100 µM
TGI (K-562 leukemia): > 100 µM
TGI (MOLT-4 leukemia): > 100 µM
TGI (EKVX NSCLC): > 100 µM
TGI (IGROV1 ovarian): > 100 µM
TGI (A498 renal): > 100 µM
TGI (NCI-H23 lung): > 100 µM
TGI (A549 NSCLC): > 100 µM
TGI (HOP-92 NSCLC): > 100 µM
TGI (UACC-62 melanoma): > 100 µM

CCc1nc2ccc(N=NN(C)C)cc2[nH]1
TGI (HCT-15 colon): > 100 µM
TGI (HCC-2998 colon): > 100 µM
TGI (K-562 leukemia): > 100 µM
TGI (MOLT-4 leukemia): > 100 µM
TGI (EKVX NSCLC): > 100 µM
TGI (IGROV1 ovarian): > 100 µM
TGI (NCI-H23 lung): > 100 µM
TGI (A549 NSCLC): > 100 µM
TGI (UACC-62 melanoma): > 100 µM

O=C(NCCCN(CCCCN(CCCNC(=O)C(F)(F)F)CCCc1ccccc1)CCCc1ccccc1)C(F)(F)F
TGI (HCT-15 colon): 2.98 µM
TGI (HCC-2998 colon): 3.27 µM
TGI (K-562 leukemia): > 100 µM
TGI (MOLT-4 leukemia): 4.48 µM
TGI (EKVX NSCLC): 4.23 µM
TGI (IGROV1 ovarian): 3.52 µM
TGI (NCI-H23 lung): 25.3 µM
TGI (A549 NSCLC): 3.73 µM
TGI (MCF7 breast): 3.05 µM
TGI (HOP-92 NSCLC): 4.63 µM
TGI (UACC-62 melanoma): 3.36 µM

O=C1/C(=C/c2ccccc2)NC(=S)N1CN1CCOCC1
TGI (HCT-15 colon): > 100 µM
TGI (K-562 leukemia): > 100 µM
TGI (MOLT-4 leukemia): > 100 µM
TGI (EKVX NSCLC): > 100 µM
TGI (IGROV1 ovarian): > 100 µM
TGI (A498 renal): > 100 µM
TGI (NCI-H23 lung): > 100 µM
TGI (A549 NSCLC): > 100 µM
TGI (MCF7 breast): > 100 µM
TGI (HOP-92 NSCLC): > 100 µM
TGI (UACC-62 melanoma): > 100 µM

CC(C)(C)[Si](C)(C)OC1/C(=C/C#N)C(n2ccc(=O)[nH]c2=O)OC1CO (configuration not stated)
TGI (K-562 leukemia): > 100 µM
TGI (MOLT-4 leukemia): > 100 µM
TGI (A498 renal): > 100 µM
TGI (NCI-H23 lung): > 100 µM
TGI (A549 NSCLC): > 100 µM
TGI (MCF7 breast): > 100 µM
TGI (HOP-92 NSCLC): > 100 µM
TGI (UACC-62 melanoma): > 100 µM

CN1CCN(CN2C(=O)C3C4C=CC(C3C2=O)C2C(=O)N(CN3CCN(C)CC3)C(=O)C42)CC1 (configuration not stated)
TGI (HCT-15 colon): > 100 µM
TGI (HCC-2998 colon): > 100 µM
TGI (K-562 leukemia): > 100 µM
TGI (MOLT-4 leukemia): 97.1 µM
TGI (EKVX NSCLC): > 100 µM
TGI (IGROV1 ovarian): > 100 µM
TGI (NCI-H23 lung): > 78.4 µM
TGI (MCF7 breast): 72.8 µM
TGI (HOP-92 NSCLC): > 100 µM
TGI (UACC-62 melanoma): > 56.9 µM

O=S(=O)(O)c1ccc(N=Nc2ccc(N=Nc3c(O)ccc4ccccc34)cc2)cc1
TGI (HCT-15 colon): > 100 µM
TGI (HCC-2998 colon): > 100 µM
TGI (K-562 leukemia): > 100 µM
TGI (MOLT-4 leukemia): > 100 µM
TGI (EKVX NSCLC): > 100 µM
TGI (IGROV1 ovarian): > 100 µM
TGI (NCI-H23 lung): > 100 µM
TGI (A549 NSCLC): > 100 µM
TGI (MCF7 breast): > 100 µM
TGI (HOP-92 NSCLC): > 100 µM
TGI (UACC-62 melanoma): > 100 µM

Cc1cc(C)nc(NS(=O)(=O)c2ccc(NNC(=O)c3cccc4c(=O)c5ccccc5[nH]c34)cc2)n1
TGI (HCT-15 colon): > 100 µM
TGI (HCC-2998 colon): > 100 µM
TGI (K-562 leukemia): > 100 µM
TGI (MOLT-4 leukemia): > 100 µM
TGI (EKVX NSCLC): 98.9 µM
TGI (IGROV1 ovarian): > 100 µM
TGI (NCI-H23 lung): > 100 µM
TGI (A549 NSCLC): > 100 µM
TGI (MCF7 breast): > 100 µM
TGI (HOP-92 NSCLC): 73.8 µM
TGI (UACC-62 melanoma): > 100 µM

N#C/C(N)=C(\C#N)NC=NCc1ccccc1
TGI (HCT-15 colon): > 100 µM
TGI (HCC-2998 colon): > 100 µM
TGI (K-562 leukemia): > 100 µM
TGI (MOLT-4 leukemia): > 100 µM
TGI (EKVX NSCLC): > 100 µM
TGI (IGROV1 ovarian): > 100 µM
TGI (A498 renal): > 100 µM
TGI (NCI-H23 lung): > 100 µM
TGI (A549 NSCLC): > 100 µM
TGI (MCF7 breast): > 100 µM
TGI (UACC-62 melanoma): > 100 µM

CCOP(=O)(O)C(C)(C)NC
TGI (HCT-15 colon): > 100 µM
TGI (HCC-2998 colon): > 100 µM
TGI (K-562 leukemia): > 100 µM
TGI (MOLT-4 leukemia): > 100 µM
TGI (EKVX NSCLC): > 100 µM
TGI (IGROV1 ovarian): > 100 µM
TGI (A498 renal): > 100 µM
TGI (NCI-H23 lung): > 100 µM
TGI (A549 NSCLC): > 100 µM
TGI (HOP-92 NSCLC): > 100 µM
TGI (UACC-62 melanoma): > 100 µM

CCOC(=O)NC1CN2CCC1CC2 (configuration not stated)
TGI (HCT-15 colon): > 100 µM
TGI (HCC-2998 colon): > 100 µM
TGI (K-562 leukemia): > 100 µM
TGI (MOLT-4 leukemia): > 100 µM
TGI (EKVX NSCLC): > 100 µM
TGI (IGROV1 ovarian): > 100 µM
TGI (A498 renal): > 100 µM
TGI (NCI-H23 lung): > 100 µM
TGI (A549 NSCLC): > 100 µM
TGI (HOP-92 NSCLC): > 100 µM
TGI (UACC-62 melanoma): > 100 µM

CSc1nncc2[nH]c(C)nc12
TGI (HCT-15 colon): > 100 µM
TGI (HCC-2998 colon): > 100 µM
TGI (K-562 leukemia): > 100 µM
TGI (MOLT-4 leukemia): > 100 µM
TGI (EKVX NSCLC): > 100 µM
TGI (IGROV1 ovarian): > 100 µM
TGI (A498 renal): > 100 µM
TGI (NCI-H23 lung): > 100 µM
TGI (A549 NSCLC): > 100 µM
TGI (MCF7 breast): > 100 µM
TGI (UACC-62 melanoma): > 100 µM

COC(=O)C1C=CN(N(C)C)C2=C1C(=O)c1c(O)cccc1C2=O (configuration not stated)
TGI (HCT-15 colon): 5.16 µM
TGI (HCC-2998 colon): 3.67 µM
TGI (K-562 leukemia): 52.1 µM
TGI (EKVX NSCLC): 11 µM
TGI (IGROV1 ovarian): 5.63 µM
TGI (A498 renal): 7.47 µM
TGI (NCI-H23 lung): 4.11 µM
TGI (A549 NSCLC): 6.44 µM
TGI (MCF7 breast): 6.38 µM
TGI (UACC-62 melanoma): 2.37 µM

O=C1NN=C2C=C(c3ccc(Cl)cc3)CC(c3cccc(Cl)c3)C12 (configuration not stated)
TGI (HCT-15 colon): 32.8 µM
TGI (HCC-2998 colon): 33.5 µM
TGI (K-562 leukemia): 41.8 µM
TGI (MOLT-4 leukemia): 52.9 µM
TGI (EKVX NSCLC): 64.7 µM
TGI (IGROV1 ovarian): 59.1 µM
TGI (NCI-H23 lung): > 100 µM
TGI (A549 NSCLC): 37.2 µM
TGI (MCF7 breast): 48.5 µM
TGI (HOP-92 NSCLC): 50.9 µM
TGI (UACC-62 melanoma): 33.6 µM

From PubChem BioAssay (NCI)
